Converted amounts (≈) assume the structure as drawn.
Tests used:
Type in all cases: functional
Bacillus subtilis = assay: Antibacterial activity against Bacillus subtilis IFO 3108 by twofold dilution method
Fusarium graminearum = assay: Antifungal activity against Gibberella zeae IFO 4474 by twofold dilution method
Alternaria = assay: Antifungal activity against Alternaria maritima IFO 8618 by twofold dilution method

Compound	MIC (Bacillus subtilis)	MIC (Fusarium graminearum)	MIC (Alternaria)
CC1=C2C(=CO[C@H](C)[C@H]2C)C(O)=C(C(=O)O)C1=O [CITRININ]	25 µg/mL (≈ 99.9 µM)		
COc1c(C)c2c(c(O)c1C/C=C(\C)CCC(=O)O)C(=O)OC2 [MYCOPHENOLIC ACID]		200 µg/mL (≈ 624 µM)	200 µg/mL (≈ 624 µM)

Source: ChEMBL document CHEMBL1158650, “Isolation in High Yield of Citrinin From Penicillium odoratum and of Mycophenolic Acid From Penicillium brunneo-stoloniferum” (1979)
